Results from patent US9316631B1, “ER-stress inducing compounds and methods of use thereof” (Whitehead Institute for Biomedical Research, priority 2012, dated 2016).
Where two headings read alike, the source gives them in different places.

Key:
[1] = system: IDMS cells (HMLE_shEcad, HMLE_Twist) versus control HMLE_shGFP cells; experiment: Dose-response cell survival, ATP-based luminescence assay, HMLE cells; set-up: species or system human; conditions: for killing of IDMS cells relative to control HMLE cells: 3 days, FIG. 3B, 3C
Protocol: (B) Dose response curves of HMLE_shGFP, HMLE_shEcad and HMLE_Twist cells treated with various concentrations of Cmp302, Cmp308 and Dev4, respectively for 3 days. Cell survival was determined using an ATP-based luminescence assay.
(B) Dose-response curves of HMLE_shGFP, HMLE_shEcad and HMLE_Twist cells treated with various concentrations of Thapsigargin, DTT and A23187 for 3 days. Cell survival was determined using an ATP-based luminescence assay.
(B) Dose-response curves indicating viability of Dev2-treated cell lines
(§1) Cells (3000/well) were plated in 100 μl per well in 96-well plates. One day (24 hr) after seeding, compounds were added in 8 different doses at three replicates per dose for each cell line. Cell viability was measured after 72 hr with the CellTiter-Glo […] Assay (Promega). Paclitaxel, Doxorubicin, Tunicamycin, Thapsigargin, A23187 and DTT were purchased from Sigma Aldrich. Cmp302 and Cmp308 were purchased from Biointerscreen.

[2] = system: UPR signaling in HMLER_shGFP and HMLER_Twist cells; experiment: UPR signaling (Western blot, XBP1 RT-PCR, ATF6 reporter, qPCR); format: cell-based, human
Protocol: (A) Expression of UPR pathway components in HMLER_shGFP and HMLER_Twist cells that were treated with Dev2, Cmp302, Dev4 or DMSO solvent for 6 h. Western blot analysis for phospho-eIF2α, total eIF2α, CHOP and β-Tubulin. RT-PCR analysis of XBP1 and XBP1 splice variant and GAPDH transcripts.
(D) Western blot analysis of HMLER_shGFP and HMLER_Twist cells treated with vehicle (DMSO), DTT or A23187 for 4 h and probed for p-eIF2α, total eIF2α, CHOP and β-Tubulin (loading control). RT-PCR analysis of XBP1 and XBP1 splice variant and GAPDH transcripts.
(E) Western blot analysis of HMLER_shGFP and HMLER_Twist cells treated with vehicle (DMSO), Tunicamycin or Thapsigargin for 4 h and probed for p-eIF2α, total eIF2α, CHOP and β-Tubulin (loading control). RT-PCR analysis of XBP1 and XBP1 splice variant and GAPDH transcripts.
Reporter activity for each cell line was normalized relative to DMSO treatment.
BIP expression was normalized relative to GAPDH for each sample.
(C) ATF6 activation of HMLER_shGFP and HMLER_Twist cells in response to Tunicamycin, Thapsigargin, DTT and A23187 were measured by ATF6 reporter assay. Reporter activity for each cell line was normalized relative to DMSO treatment.
(D) qPCR analysis for BIP expression in HMLER_shGFP and HMLER_Twist cells treated with Thapsigargin and DTT. BIP expression was normalized relative to GAPDH for each sample.
(E) qPCR analysis for expression of GADD34 in HMLER_shGFP and HMLER_Twist cells treated with Thapsigargin and DTT. GADD34 expression was normalized relative to GAPDH for each sample.
Western blotting was performed as previously described (Gupta et al., 2009). Antibodies used for immunoblotting were as follows: E-cadherin (BD Transduction), Fibronectin (Abcam), Actin, Cytokeratin 8/18, PERK, eIF2α, peIF2α, CHOP, Caspase-3 and Bip (Cell Signal Technology).
p5xATF6-GL3 and hRluc constructs were obtained from Addgene (plasmids 11976 and 24348, provided by Drs. Ron Prywes and Liqun Luo, resp.). 24 hours after co-transfection of 0.3 μg p5xATF6-GL3 and 0.05 μg hRluc plasmids, cells were treated with indicated compounds for another 6 hours, and ATF6 activity was measured by a dual luciferase assay (Promega).

SUM159 cancer cells [3] = experiment: Tumorsphere formation of pretreated SUM159 cells; format: cell-based, human; conditions: pretreatment 3 days (1 μg/ml Tunicamycin, 10 nM Thapsigargin), 3 days recovery
Protocol: (A) Representative brightfield images and quantification of tumorsphere formation of SUM159 cancer cells treated with 5 nM Paclitaxel, 1 μg/ml Tunicamycin, 10 nM Thapsigargin, or DMSO vehicle for 3 days followed by another 3 days of recovery in regular medium. Scale bar: 50 μm
Mammosphere formation assays were performed as described (Dontu et al., 2003), but with 0.6% methylcellulose (Stem Cell Technologies). Five thousand cells were plated per well in low-adherence 24-well plates and cultured for 5-8 days prior to being counted and photographed.
(§2) To determine whether chemical ER perturbants could abrogate the malignancy of IDMS cells, SUM159 cancer cells (derived from a primary anaplastic Basal-B breast carcinoma) were treated with tunicamycin, thapsigargin or paclitaxel at their respective IC75 doses. Cells were then allowed to recover in the absence of treatment prior to subjecting them to functional assays for IDMS-related phenotypes.

SUM159 cancer cells [4] = experiment: Transwell migration of pretreated SUM159 cells; format: cell-based, human; conditions: 5 h migration
Protocol: (B) Representative images of crystal violet staining of SUM159 cells following transwell migration assay. Transwell migration assay was performed on SUM159 cancer cells treated as in (A). Cells that have migrated for 5 h following seeding into 8 μm pore inserts were visualize and quantified. Scale bar: 50 μm
as §2

[5] = system: protein secretion of SUM159 cells; experiment: 35S-methionine/cysteine labeling of secreted proteins, pretreated SUM159 cells; format: cell-based, human; conditions: pretreatment 3 days, recovery 3 days
Protocol: (B) Autoradiograph showing ^35S-methionine/cysteine-labeled secreted proteins in SUM159 cells that were pretreated with 1 μg/ml Tunicamycin, 10 nM Thapsigargin, 0.1 μM A23187 or DMSO vehicle for 3 days and allowed to recover in the absence of chemical for 3 days prior to the ^35S-methionine/cysteine labeling.
(§3) Equal numbers of cells were cultured in the presence of ^35S-methionine/cysteine in medium with reduced methionine/cysteine content and minimal serum. At the indicated timepoints, aliquots of medium were extracted for analysis. Medium was centrifuged at 800×g for 2 min to pellet any whole cell contaminants. Equal volume of medium was reduced in loading buffer, separated by SDS-PAGE and analyzed by autoradiography.

SUM159 cells = experiment: Dose-response of pretreated SUM159 cells to paclitaxel or doxorubicin; format: cell-based, human; conditions: pretreated SUM159, then paclitaxel or doxorubicin 3 days; FIG. 7D
Protocol: (D) Dose-response curves of SUM159 cells pre-treated as in (C) and then treated with 8 doses of paclitaxel or doxorubicin for 3 days. Cell survival was determined using an ATP-based luminescence assay.
as §1

[6] = system: protein secretion of HMLE cells; experiment: 35S-methionine/cysteine labeling of secreted proteins, HMLE cells; format: cell-based, human; conditions: control experiment; data not shown
Protocol: (F) Autoradiograph showing ^35S-methionine/cysteine-labeled secreted proteins in IDMS (HMLE_shEcad, HMLE_Twist) and control (HMLE_shGFP) cells. Secreted proteins were harvested at the indicated time points. Quantification of signal in each lane is provided in arbitrary units. The indicated proteins were identified by mass-spectrometry.
as §3
To determine whether overall protein secretion was elevated in IDMS cells, total protein synthesis and secretion was measured using ^35S-methionine/cysteine. Labeled proteins secreted by cells into the culture medium (“secretome”) were visualized by gel electrophoresis and autoradiography. After three hours of ^35S-methionine/cysteine labeling, we observed a 9.6-fold and 13.7-fold increase in the secretome of IDMS cells (HMLE_shEcad and HMLE_Twist, resp.) relative to the control epithelial cells (FIG. 4F).

[7] = system: HMLER_shGFP and HMLER_Twist cells; experiment: Viability with thapsigargin in presence or absence of salubrinal; format: cell-based, human; conditions: 10 μM salubrinal, 3 days; FIG. 6F
Protocol: (F) Relative viability of HMLER_shGFP and HMLER_Twist cells treated with increasing doses of thapsigargin in the presence or absence of 10 μM salubrinal for 3 days. Cell viability was assayed with an ATP-based luminescence assay.
as §1

[8] = system: HMLE_Twist_GFP / HMLE_shEcad_GFP cells mixed 1:1 with HMLE_shGFP_dsRed cells; experiment: Co-culture of GFP-labeled IDMS cells with dsRed-labeled control epithelial cells; format: cell-based, human; conditions: 1:1 co-culture, 5 days treatment; FIGS. 1D and E
Protocol: (D) Representative fluorescence images of HMLE_shGFP_dsRed and HMLE_Twist_GFP cells were mixed in a 1:1 ratio and treated with 5 nM Paclitaxel, 2 μM Cmp302, 2 μM Cmp308 or DMSO control. Images after 5 days of treatment are shown. Scale bar: 50 μm
(E) Quantification of HMLE_shGFP_dsRed and HMLE_shEcad_GFP cells that were mixed in a 1:1 ratio and treated with Doxorubicin or Dev4. Following a 5 day treatment, the percentages of dsRed-positive and GFP-positive cells were quantified by FACS.
Even though Cmp302 and Cmp308 were selective for IDMS cells when cultured alone, tumors are comprised of heterogeneous populations of cells that could affect the sensitivity or selectivity of the applied chemicals. Therefore GFP-labeled IDMS cells were co-cultured with dsRed-labeled control epithelial cells and then applied Cmp302 and Cmp308.

MDA-MB-157 cells = experiment: Dose-response cell survival of MDA-MB-157 cells in suspension versus adherent culture; format: cell-based, human; conditions: 3 days; FIG. 1I
Protocol: (I) Dose-response curves of MDA-MB-157 cells cultured in adherent or suspension conditions and treated with 8 doses of paclitaxel, Cmp302 or Cmp308 for 3 days. Cell survival was determined using an ATP-based luminescence assay.
as §1
Next, it was determined whether the preferential toxicity of these compounds was unique to the oncogenic modifications of the HMLE breast epithelial cell system. Accordingly, a model was developed in which human breast carcinoma cells progressed towards the IDMS state in the absence of genetic modifications by altering their extracellular contextual signals. […] However, this line adopts an IDMS state when detached from its substratum and cultured in suspension (FIG. 1F). […] This morphologic alteration was accompanied by upregulation of mesenchymal markers (fibronectin) and downregulation of epithelial proteins (cytokeratin 8/18 and E-cadherin) (FIG. 1G). […]

[9] = system: MDA-MB-157 cells (CD44hiCD24lo and CD44loCD24hi fractions); experiment: Flow cytometry of CD44/CD24 fractions of treated MDA-MB-157 cells; format: cell-based, human; conditions: suspension, 36 h; FIG. 1J
Protocol: (J) MDA-MB-157 cells were treated with Cmp308, paclitaxel or DMSO solvent in suspension for 36 h and analyzed by flow cytometry for CD44 and CD24 expression. The percentage of CD44^hiCD24^lo and CD44^loCD24^hi cells in were quantified and normalized relative to DMSO controls.
FACS analysis was performed according to the manufacturer's protocol (BD Biosciences). Reagents used in FACS were as follows: APC-conjugated anti-CD44 antibody (clone G44-26), PE-conjugated anti-CD24 antibody (clone ML5), and propidium iodide (5 μg/ml) (BD Bioscience).

[10] = 6 h treatment (Cmp302, Dev4, Dev2) or 4 h (DTT, A23187, tunicamycin, thapsigargin), IDMS versus non-IDMS cells

C/C=C(/C)C(=O)O[C@H]1C(C)=C2[C@H]([C@@H]1OC(=O)CCCCCCC)[C@@](C)(OC(C)=O)C[C@H](OC(=O)CCC)[C@@]1(O)[C@H]2OC(=O)[C@@]1(C)O [thapsigargin]
killing of IDMS cells relative to control HMLE cells [1]: selective lethality
UPR signaling (XBP1 splicing, eIF2α phosphorylation, ATF6 activation) [2, 10]: selectively induced
tumorsphere-forming ability relative to paclitaxel- or DMSO-treated cells (SUM159 cancer cells [3]): significantly reduced
migratory ability relative to paclitaxel-pretreated cells (SUM159 cancer cells [4]): strongly impaired
protein secretion relative to paclitaxel- and DMSO-treated cells [5]: strongly inhibited
sensitization of pretreated cells to chemotherapy (SUM159 cells): sensitized SUM159 cells to paclitaxel and doxorubicin

O[C@H](CS)[C@H](O)CS (racemic) [DTT, dithiothreitol]
killing of IDMS cells relative to control HMLE cells [1]: selective lethality
UPR signaling (XBP1 splicing, eIF2α phosphorylation, ATF6 activation) [2, 10]: selectively induced

C[C@H]1CCC/C=C/[C@@H]2C[C@H](O)C[C@H]2[C@H](O)/C=C/C(=O)O1 [Brefeldin-A, Brefeldin A]
protein secretion [6]: completely abolished protein secretion

tunicamycin
IC50 (toxicity) ([1]; both IDMS and control HMLE cells, data not shown): < 10^−10 g/ml
UPR signaling (XBP1 splicing, eIF2α phosphorylation, ATF6 activation) [2, 10]: more readily induced in IDMS cells
dose required for UPR induction relative to toxic dose ([2]; IDMS cells, FIG. 3E): 100 fold
tumorsphere-forming ability relative to paclitaxel- or DMSO-treated cells (SUM159 cancer cells [3]): significantly reduced
migratory ability relative to paclitaxel-pretreated cells (SUM159 cancer cells [4]): strongly impaired
protein secretion relative to paclitaxel- and DMSO-treated cells [5]: strongly inhibited
sensitization of pretreated cells to chemotherapy (SUM159 cells): sensitized SUM159 cells to paclitaxel and doxorubicin

O=C(/C=C/c1ccccc1)NC(NC(=S)Nc1cccc2cccnc12)C(Cl)(Cl)Cl (centres unmarked) [Salubrinal, salubrinal]
sensitization to thapsigargin treatment [7]: further sensitized HMLER-Twist IDMS, but not control cells

CC(=O)O[C@H]1C(=O)[C@@]2(C)[C@H]([C@H](OC(=O)c3ccccc3)[C@]3(O)C[C@H](OC(=O)[C@H](O)[C@@H](NC(=O)c4ccccc4)c4ccccc4)C(C)=C1C3(C)C)[C@]1(OC(C)=O)CO[C@@H]1C[C@@H]2O [paclitaxel]
effect on IDMS cells in mixed populations [8]: selective expansion of IDMS cells
toxicity towards IDMS MDA-MB-157 cells in suspension relative to non-IDMS cells in adherent conditions (MDA-MB-157 cells): decreased toxicity
preferential toxicity towards CD44hiCD24lo versus CD44loCD24hi fraction [9]: did not exhibit this preferential toxicity

COc1cccc2c1C(=O)c1c(O)c3c(c(O)c1C2=O)C[C@@](O)(C(=O)CO)C[C@@H]3O[C@H]1C[C@H](N)[C@H](O)[C@H](C)O1 [doxorubicin]
effect on IDMS cells in mixed populations [8]: selective expansion of IDMS cells

CNc1ccc2oc(C[C@H]3O[C@@]4(CC[C@H]3C)O[C@H]([C@H](C)C(=O)c3ccc[nH]3)[C@H](C)C[C@H]4C)nc2c1C(=O)O [A23187]
killing of IDMS cells relative to control HMLE cells [1]: selective lethality
UPR signaling (XBP1 splicing, eIF2α phosphorylation, ATF6 activation) [2]: selectively induced
